In US20030050237A1, “Prolonged delivery of peptides” (Scios Inc., priority 1993, published 2003):

Test: Insulinotropin infusion, plasma glucose levels in patients with NIDDM
Assay type: in vivo
Conditions: raising peptide around meal time alone, for periods of up to one hour

His-Asp-Glu-Phe-Glu-Arg-His-Ala-Glu-Gly-Thr-Phe-Thr-Ser-Asp-Val-Ser-Ser-Tyr-Leu-Glu-Gly-Gln-Ala-Ala-Lys-Glu-Phe-Ile-Ala-Trp-Leu-Val-Lys-Gly-Arg-Gly [GLP-1]
glycemic control: will not adequately control the glucose levels
